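In this assay, cells in 96-well plates receive the compound at five concentrations for 48 hours. Endpoints are linearly interpolated between the surrounding concentrations. GI50 is the concentration that inhibits growth by half. The concentration for full growth arrest is given as TGI.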

Here are results for 8 compounds from PubChem BioAssay (NCI).

Among the test systems are HS 578T breast; SF-268 CNS; T-47D breast; K-562 leukemia; SK-MEL-2 melanoma; SK-MEL-28 melanoma; RPMI-8226 leukemia; OVCAR-3 ovarian; UACC-257 melanoma; SW-620 colon.
Common to all, as to test: NCI anticancer screen, dose series, 48 h

As for `c1ccc(-c2oc(-c3ccccc3)c(CN3CCCCC3)c2CN2CCCCC2)cc1`, the GI50 in the assay with HS 578T breast is 3.14 µM; with SF-268 CNS it was 6.04 µM; in the assay on T-47D breast it was 2.71 µM; with K-562 leukemia it was 1.94 µM; in the assay with SK-MEL-2 melanoma it was 3.72 µM; with SK-MEL-28 melanoma it was 1.53 µM. Further, the GI50 is 1.66 µM in the assay with RPMI-8226 leukemia, 2.92 µM in the assay with OVCAR-3 ovarian, 3 µM with UACC-257 melanoma and 3.05 µM in the assay with SW-620 colon. The TGI in the assay on HS 578T breast was 15.8 µM; in the assay with SF-268 CNS it was 20.6 µM; in the assay on T-47D breast, 11.7 µM; in the assay with K-562 leukemia, 6.51 µM; with SK-MEL-2 melanoma, 15.7 µM; in the assay on SK-MEL-28 melanoma it was 3.02 µM. The TGI came to 4.08 µM in the assay on RPMI-8226 leukemia, 10.5 µM in the assay on OVCAR-3 ovarian, 8.08 µM with UACC-257 melanoma and 16.4 µM in the assay with SW-620 colon.

For `COc1ccc(-c2cc(-c3ccc(Nc4nc(Nc5ccccc5)nc(Nc5ccc(Cl)cc5)n4)cc3)nc(N)n2)cc1`, the GI50 with HS 578T breast was 6.65 µM; in the assay on SF-268 CNS it was 13.3 µM; in the assay with T-47D breast, 6.3 µM; in the assay on K-562 leukemia it was 4.63 µM; in the assay on SK-MEL-2 melanoma, 13.1 µM; in the assay with SK-MEL-28 melanoma, 10.9 µM. Moreover, the GI50 was 5.15 µM with RPMI-8226 leukemia, 11.3 µM with OVCAR-3 ovarian, 15.9 µM in the assay with UACC-257 melanoma and 13.1 µM in the assay with SW-620 colon. The TGI in the assay with HS 578T breast is 32.2 µM; in the assay on SF-268 CNS, 46.8 µM; in the assay on T-47D breast it was 21.7 µM; in the assay with K-562 leukemia, 16.5 µM; in the assay on SK-MEL-2 melanoma, 44.1 µM; in the assay on SK-MEL-28 melanoma it was 26.5 µM. The TGI is 20.5 µM with RPMI-8226 leukemia, more than 50 µM in the assay with OVCAR-3 ovarian, 45.5 µM with UACC-257 melanoma and 44.9 µM in the assay with SW-620 colon.

Regarding `O=C1Nc2ccc(Cl)cc2/C1=C\c1c(-c2ccc(Cl)cc2)nc2sc(C3CC3)nn12`, the GI50 in the assay on HS 578T breast is 2.31 µM; in the assay with SF-268 CNS, 3.21 µM; in the assay with T-47D breast it was 2.41 µM; in the assay with K-562 leukemia, 7.37 µM; in the assay on SK-MEL-2 melanoma, 4.9 µM; with SK-MEL-28 melanoma, 3.49 µM. The GI50 in the assay on RPMI-8226 leukemia is 18.1 µM; in the assay with OVCAR-3 ovarian, 4.16 µM; in the assay with UACC-257 melanoma it was 3.36 µM; in the assay with SW-620 colon, 7.65 µM. Also, the TGI with HS 578T breast came out at 6.85 µM; in the assay with SF-268 CNS, 12.9 µM; with T-47D breast, 22 µM; in the assay on K-562 leukemia it was 24.7 µM; with SK-MEL-2 melanoma, 19.8 µM; with SK-MEL-28 melanoma it was 13.7 µM. The TGI was more than 100 µM in the assay on RPMI-8226 leukemia, 15.2 µM in the assay with OVCAR-3 ovarian, 14.4 µM in the assay on UACC-257 melanoma and 55 µM with SW-620 colon.

Turning to `CN(C)c1ccc(/C=C\c2ccnc3ccccc23)cc1`, the GI50 with HS 578T breast is 13 µM; with SF-268 CNS it was 21.8 µM; in the assay with T-47D breast it was 2.48 µM; with K-562 leukemia, more than 21.1 µM; in the assay on SK-MEL-2 melanoma, 21.2 µM; in the assay with SK-MEL-28 melanoma, 21.7 µM. In addition, the GI50 in the assay on RPMI-8226 leukemia was 4.02 µM; in the assay with OVCAR-3 ovarian, 7.88 µM; in the assay with UACC-257 melanoma, 8.39 µM; in the assay with SW-620 colon, 5.78 µM. The TGI in the assay with HS 578T breast is more than 47.9 µM; with SF-268 CNS, more than 100 µM; in the assay on T-47D breast, more than 100 µM; in the assay with K-562 leukemia, more than 100 µM; with SK-MEL-2 melanoma, more than 100 µM; in the assay on SK-MEL-28 melanoma it was more than 80.5 µM. Also, the TGI in the assay on RPMI-8226 leukemia was more than 85 µM; in the assay on OVCAR-3 ovarian it was more than 60 µM; in the assay with UACC-257 melanoma it was 79.4 µM; in the assay with SW-620 colon, more than 96 µM.

As for `O=C1NC(=S)S/C1=C\c1cn(-c2ccccc2)nc1-c1ccccc1`, the GI50 in the assay on HS 578T breast is 6.03 µM; in the assay on SF-268 CNS, 17.2 µM; with T-47D breast, 4.59 µM; in the assay with K-562 leukemia, 7.54 µM; with SK-MEL-2 melanoma, 4.18 µM; with SK-MEL-28 melanoma it was 9.22 µM. In addition, the GI50 in the assay on RPMI-8226 leukemia is 2.52 µM; in the assay on OVCAR-3 ovarian, 11.6 µM; in the assay on UACC-257 melanoma, 13.2 µM; in the assay with SW-620 colon, 19.6 µM. Also, the TGI is 43.6 µM in the assay on HS 578T breast; more than 100 µM with SF-268 CNS; 32.6 µM with T-47D breast; more than 100 µM with K-562 leukemia; 19.4 µM in the assay with SK-MEL-2 melanoma; more than 100 µM in the assay on SK-MEL-28 melanoma. In addition, the TGI in the assay on RPMI-8226 leukemia is 68.6 µM; in the assay on OVCAR-3 ovarian it was 29 µM; with UACC-257 melanoma, 73.9 µM; in the assay on SW-620 colon, more than 100 µM.

With `CCCn1c2c(c3ccccc3c1=O)C(=O)c1ccccc1-2`, the TGI with HS 578T breast, with SF-268 CNS, in the assay on T-47D breast, with K-562 leukemia, in the assay with SK-MEL-2 melanoma and with SK-MEL-28 melanoma was more than 100 µM each time. In addition, the TGI with RPMI-8226 leukemia, in the assay with OVCAR-3 ovarian, with UACC-257 melanoma and with SW-620 colon was more than 100 µM in each case.

Turning to `O=C(CS(=O)(=O)c1nc2ccccc2nc1-c1ccccc1)Nc1ccc(F)cc1`, the GI50 is 29.7 µM in the assay with HS 578T breast; 91.8 µM in the assay on SF-268 CNS; 56.6 µM with T-47D breast; 3.83 µM with K-562 leukemia; 51.9 µM with SK-MEL-2 melanoma; more than 100 µM in the assay on SK-MEL-28 melanoma. In addition, the GI50 in the assay on RPMI-8226 leukemia is 29.1 µM; with OVCAR-3 ovarian it was 30.6 µM; in the assay on UACC-257 melanoma it was more than 100 µM; in the assay with SW-620 colon it was 46.6 µM. Moreover, the TGI was 94.3 µM in the assay with HS 578T breast; more than 100 µM in the assay with SF-268 CNS; more than 100 µM in the assay with T-47D breast; 16.6 µM in the assay on K-562 leukemia; more than 100 µM with SK-MEL-2 melanoma; more than 100 µM in the assay on SK-MEL-28 melanoma. Also, the TGI with RPMI-8226 leukemia, with OVCAR-3 ovarian, in the assay on UACC-257 melanoma and in the assay with SW-620 colon was more than 100 µM in each case.

For the compound `N#CCn1c(=O)c(Oc2ccc(F)cc2F)cc2cnc(NC3CCOCC3)nc21`, the GI50 with HS 578T breast is more than 25 µM; with SF-268 CNS it was more than 25 µM; in the assay on T-47D breast, 12.3 µM; with K-562 leukemia, more than 25 µM; in the assay with SK-MEL-2 melanoma it was more than 25 µM; in the assay with SK-MEL-28 melanoma it was more than 25 µM. Moreover, the GI50 in the assay with RPMI-8226 leukemia, in the assay with OVCAR-3 ovarian, in the assay on UACC-257 melanoma and in the assay on SW-620 colon was more than 25 µM throughout. For the same compound, the TGI with HS 578T breast, in the assay on SF-268 CNS, in the assay on T-47D breast, with K-562 leukemia, in the assay on SK-MEL-2 melanoma and in the assay on SK-MEL-28 melanoma was more than 25 µM throughout. In addition, the TGI in the assay on RPMI-8226 leukemia, in the assay on OVCAR-3 ovarian, in the assay with UACC-257 melanoma and with SW-620 colon was more than 25 µM in each case.
